Laboratory results as given in article PMC12100716 (2025).

How the values were obtained:
Test in all cases: PELDOR (EPR) distance distributions
[1] = test system: C30C47 (RNA, aptamer, Çm (rigid nitroxide spin-label cytidine analogue) at 30 and 47) GGACGACUGAACCGAAAGGUUCUUGGCUGCUUCGGCAGAGGUACGUCC; details: 130 mM glutamate buffer, pH 7.5; frozen solution; qualitative; small fraction of free aptamer remains
[2] = test system: C12C30 (RNA, aptamer, Çm (rigid nitroxide spin-label cytidine analogue) at 12 and 30) GGACGACUGAACCGAAAGGUUCUUGGCUGCUUCGGCAGAGGUACGUCC; details: 130 mM glutamate buffer, pH 7.5; frozen solution; qualitative
[3] = test system: C12C47 (RNA, aptamer, Çm (rigid nitroxide spin-label cytidine analogue) at 12 and 47) GGACGACUGAACCGAAAGGUUCUUGGCUGCUUCGGCAGAGGUACGUCC; details: 130 mM glutamate buffer, pH 7.5; frozen solution; qualitative

Measured: binding

CN(C)c1ccc2c(-c3ccc(C(=O)O)cc3C(=O)[O-])c3ccc(=[N+](C)C)cc-3oc2c1
yes: all assays above
